The test system of test [1] is transient transfected colorectal cell lines (Caco-2, CC-M1, DLD-1). As to the kind of experiment: Chemosensitivity of transient transfectants (cell counting). It is filed as cell-based, human. As to conditions: with pNCRMP1 or pNCN3 transient transfected colorectal cell lines; data not shown. Here is the method: (§1) Six human cancer cell lines, including human colon cancer cell lines Caco-2, CC-M1, DLD-1; human prostate cancer cell lines DU145, PC-3; and human breast cancer cell line MCF-7, were tested in an experiment on improvement of chemosensitivity. Two expression plasmids, pNCRMP1 and pNCN3, and the pCI-neo vector (control plasmid), were used for transfection, respectively. The general cultivation conditions and transfection procedures were the same as described in Example 3.
(§2) Treatment of transient transfected cell lines using chemical agent was immediately performed as follows, and quantification of viable cells was performed by counting using hemocytometer after 3-days incubation at 37° C.: • (1) Three types of transient transfected human colorectal cancer cells were treated with 5-fluorouracil; • (2) The transient transfected human prostate cancer cell line DU145 was treated with Adriamycin™ (doxorubicin), cyclophosphamide and etoposide; • (3) The transient transfected human prostate cancer cell line PC3 was treated with cyclophosphamide, etoposide, and paclitaxel; and, • (4) The transient transfected human breast cancer cell line MCF-7 was treated with Adriamycin™ (doxorubicin) and paclitaxel.

The subject of test [2] is H520 stable transfectants. The test can be described thus: Chemosensitivity (MTT cytotoxicity) of stable transfectants. Type of test: cell-based. The settings on record: Homo sapiens, read-out: IC50 of chemical agent. The source says:
Three human cancer cell lines, including lung cancer cell line H520 and two human prostate cancer cell lines (PC-3 and DU145) were applied for selection of stable transfectants. Four expression plasmids, including pNCRMP1, pNCN1, pNCN3, and pNCN4, and the pCI-neo vector (as control plasmid) were used for transfection, respectively. The general cultivation condition and transfection procedures were the same as described in Example 3. The transfected cells were further cultivated under the same conditions as their parental cell lines and selected with 0.6-1 mg antibiotic G418 per ml (Kao et al., Oncogene 16: 546-554 (1998); Xiaolin et al, Cancer Research 65: 9762-9770 (2005)).
Three agents, including caffeic acid phenethyl ester (CAPE; Sigma, US), Adriamycin™ (doxorubicin) (Pharmacia & Upjohn S.P.A. Milan, Italy), and paclitaxel (Taxol; Bristol-Myers Squibb Co., Wallingford, Conn.), were dissolved in DMSO (dimethyl sulfoxide; Sigma) for preparation of stock solution, respectively. A serial dilution was prepared with DPBS buffer for chemosensitivity tests. The human lung squamous carcinoma stable transfectants H520 were treated with both CAPE and Adriamycin™ (doxorubicin) for four different concentrations, e.g. 0.05, 0.01, 0.002, and 0.0004 mM, while the administering of paclitaxel was performed at different concentrations, e.g. 1000, 200, 40, and 8 nM. Both types of prostate stable transfectants were only treated with paclitaxel for eight concentrations ranging from 0.1 mM to 1.28 nM with 1/5 dilution each step.
MTT (3-(4,5-dimethylthiazol-2-yl)-2,5-diphenyltetrazolium bromide; Sigma, Inc.) assay (Monks et al., J. Natl. Cancer Inst. 83:757-766 (1991); Paull et al, J. Natl. Cancer Inst. 81:1088-1092 (1989)) was applied for studying the cytotoxic effect of indicated agent. The absorbance was measured both at 545 nm and at 690 nm (served as reference) using the 96-well spectrophotometer reader (Emax, Molecular Device Inc., California, US) (Chen et al., Yi Xue Za Zhi (Taipei) 46:7-16 (1990)). The relative growth inhibition was calculated as follows: Relative growth inhibition=100%×(1−(OD545nm (Treated cells)−OD690nm(Treated cells))÷(OD545nm(untreated cells)−OD690nm(untreated cells)))
The 50% inhibition concentration (IC50) was determined after graphical plotting of spectrophotometric measurements and interpolation by EXCEL software.

Test [3] has as its system MCF-7 transient transfectants. As to the kind of experiment: Chemosensitivity of transient transfectants (cell counting). It is filed as cell-based. As to conditions: Homo sapiens, MCF7, 72 h, read-out: IC50 of chemical agent. Here is the method: as §1, §2
In test [4] the test system is DU145 transient transfectants. The test is described as above. Type of test: cell-based, human. As to conditions: read-out: IC50 of chemical agent. Here is the method: as §1, §2
Test [5] relates to PC-3 transient transfectants. Described as above. It is filed as cell-based. The settings on record: Homo sapiens, 72 h. The protocol:
as §1, §2

Another test relates to DU145 cells. The test can be described thus: Antiproliferative effect after transient transfection. It is filed as cell-based, human. The settings on record: for selectivity on antiproliferative ability: prostate cancer cells (PC-3, DU145) vs human prostate normal cell line PZ-HPV-7. The source says:
(§3) All cell lines were purchased from Food Industry Research and Development Institute (FIRDI), Hsinshu, Taiwan. They were originated from different tissues or organs, including: • (1) human lung cancer cells: adenocarcinoma A549 (BCRC60074), squamous cell carcinoma H520 (BCRC60124), and large-cell carcinoma H460 (CCRC600373), • (2) human prostate cancer cell: adenocarcinoma PC-3 (CCRC60112) and carcinoma DU145 (CCRC60348) isolated from metastatic brain site; • (3) human colon cancer cells: adenocarcinoma SW 480 (CCRC60249), CC-M1 (BCRC60448), and DLD-1 (CCRC60132); • (4) human breast cancer cells: ductal carcinoma BT-474 (CCRC 60359), MCF-7 (CCRC60436), and ZR-75-1 (CCRC60055); • (5) Chinese hamster lung cell V79-4 (BCRC60183), and • (6) human prostate normal cell PZ-HPV-7 (CCRC60136).
(§4) The cultivation of cell lines was as described as the instruction provided by Food Industry Research and Development Institute (FIRDI), while 10% fetal bovine serum (JRH Biosciences, USA) was supplemented as final concentration, if necessary. The human prostate normal cell line PZ-HPV-7 was maintained in Keratinocyte-SFM medium (Life Technologies, Inc., US).
(§5) Mammalian cells were seeded to 6-well plate (Corning Inc., USA) with a cell density of 2˜8×10^5 and incubated at 37° C. for overnight prior to transfection. Each cell line was respectively transfected with the pCI-neo Mammalian Expression Vector (as control plasmid; Promega, USA) or with the hCRMP-1-related expression plasmid by using Lipofectamine™ Reagent (Invitrogen, #18324-020). A series of expression plasmid containing full-length or partial gene fragment of hCRMP-1, were pNCRMP1, pNCN1, pNCN3, pNCN4, pNCN5, pNCN6, and pNCN7, whose constructions were described in Example 1 and Example 2.
(§6) The nomenclature of transfected cell line was according to the cell line and expression plasmid and characterized as “cell line/expression plasmid.” Quantitation of viable cells after transfection was performed by using hemocytometer after 5-days incubation at 37° C. (R. Ian Freshney: Culture of Animal Cells, A Manual of Basic Technique, Chapter 20, pp. 309-312, WILEY-LISS, Canada (2000)).
(§7) The antiproliferative effect (in percentage) of each cell line transfected with individual expression plasmid was normalized with the same cell line transfected with control plasmid as follows: Antiproliferative effect=100%×(1−(number of cells transfected with expression plasmid÷number of cells transfected with control plasmid))

Another test relates to CC-M1 cells. The test is described as above. The settings on record: 5-days incubation, normalized to pCI-neo control plasmid. Type of test: cell-based, human.
Source text: as §3, §4, §5, §6, §7

Another test has as its system H460 cells. The test is described as above. It is filed as cell-based, human. The settings on record: viable cells counted after 5-days incubation, normalized to pCI-neo control plasmid.
Source text: as §3, §4, §5, §6, §7

Another test relates to MCF-7 cells. The test is described as above. Type of test: cell-based, human. The settings on record: MCF-7, transient transfection, 5-days incubation, normalized to pCI-neo control plasmid.
Source text: as §3, §4, §5, §6, §7

A further test concerns PC-3 cells. The description is as above. Type of test: cell-based, human. As to conditions: PC-3, transient transfection, 5-days incubation, normalized to pCI-neo control plasmid.
Source text: as §3, §4, §5, §6, §7

Test [6] relates to poorly differenciated human lung adenocarcinoma cells. The settings on record: cells established from a patient; Shih et al., J. Natl. Cancer Inst. 93(18) (2001); cited from earlier work.
The mark [7] stands for this setting: NCI-H520, stable transfectant H520/pCI-neo/1 (control plasmid), MTT.
[8] abbreviates: NCI-H520, stable transfectant H520/pNCN1/1, MTT.
The mark [9] stands for this setting: NCI-H520, stable transfectant H520/pNCN3/1, MTT.
The mark [10] stands for this setting: NCI-H520, stable transfectant H520/pNCN4/1, MTT.
Setting [11] is: NCI-H520, stable transfectant H520/pNCRMP1/1, MTT.
[12] abbreviates: Homo sapiens, DU-145, 72 h, transient transfectant DU145/pCIneo (control plasmid), 3-days incubation.
[13] abbreviates: Homo sapiens, DU-145, 72 h, transient transfectant DU145/pNCN3, 3-days incubation.
[14] abbreviates: Homo sapiens, DU-145, 72 h, transient transfectant DU145/pNCRMP1, 3-days incubation.

Consider eight compounds from patent US7741464B2, “Compositions and methods of using CRMP-1 and its fragments for treating cancer” (Advpharma Inc., priority 2007, dated 2010).

Where two headings read alike, the source gives them in different places. A value given as a limit tells only on which side of the number the result lay.

Regarding `O=c1[nH]cc(F)c(=O)[nH]1` [5-fluorouracil], the improvement of chemosensitivity result in test [1] was “no improvement of chemosensitivity”.

Regarding `COc1cccc2c1C(=O)c1c(O)c3c(c(O)c1C2=O)C[C@@](O)(C(=O)CO)C[C@@H]3O[C@H]1C[C@H](N)[C@H](O)[C@H](C)O1` [Adriamycin ™ (doxorubicin), doxorubicin], the IC50 in [2] (setting [7]) is 0.74 µM; in test [2] (setting [8]), less than 0.4 µM; in test [2] (setting [9]) it was less than 0.4 µM; in [2] (setting [10]), 0.5 µM; in test [2] (setting [11]), less than 0.4 µM; in [3] (transient transfectant MCF-7/pCIneo (control plasmid), 3-days incubation), 2.13 µM. The IC50 in test [3] (transient transfectant MCF-7/pNCN3, 3-days incubation) amounted to 0.32 µM; in [3] (transient transfectant MCF-7/pNCRMP1, 3-days incubation), 0.1 µM; in test [4] (setting [12]), 0.073 µM; in test [4] (setting [13]), 0.06 µM; in test [4] (setting [14]), 0.079 µM.

`O=C(/C=C/c1ccc(O)c(O)c1)OCCc1ccccc1` [CAPE, caffeic acid phenethyl ester]: the IC50 in [2] (setting [7]) is more than 50 µM; in [2] (setting [8]), 23 µM; in test [2] (setting [9]), 29 µM; in test [2] (setting [10]), 27 µM; in [2] (setting [11]), 17 µM.

Consider `O=P1(N(CCCl)CCCl)NCCCO1` (centres unmarked) [Cyclophosphamide, cyclophosphamide], for which the IC50 was more than 100 µM in test [5] (read-out: IC50 of chemical agent, transient transfectant PC-3/pCIneo (control plasmid), 3-days incubation); 55 µM in [5] (read-out: IC50 of chemical agent, transient transfectant PC-3/pNCN3, 3-days incubation); more than 100 µM in [5] (read-out: IC50 of chemical agent, transient transfectant PC-3/pNCRMP1, 3-days incubation); more than 100 µM in test [4] (Homo sapiens, DU-145, 72 h); more than 100 µM in [4] (transient transfectant DU145/pCIneo (control plasmid), 3-days incubation); more than 100 µM in test [4] (transient transfectant DU145/pNCN3, 3-days incubation).

As to `COc1cc([C@@H]2c3cc4c(cc3[C@@H](O[C@@H]3O[C@@H]5CO[C@@H](C)O[C@H]5[C@H](O)[C@H]3O)[C@H]3COC(=O)[C@H]23)OCO4)cc(OC)c1O` [Etoposide, etoposide], the IC50 is 64 µM in test [5] (transient transfectant PC-3/pCIneo (control plasmid), 3-days incubation, read-out: IC50 of chemical agent); more than 100 µM in test [5] (transient transfectant PC-3/pNCN3, 3-days incubation, read-out: IC50 of chemical agent); 33 µM in [5] (transient transfectant PC-3/pNCRMP1, 3-days incubation, read-out: IC50 of chemical agent); 0.46 µM in test [4] (setting [12]); 0.71 µM in test [4] (setting [13]); 0.71 µM in test [4] (setting [14]).

As to “CN3: active fragment of hCRMP-1, 208-480 of SEQ ID NO: 1 (SEQ ID NOS: 17 and 39)”, in the test on DU145 cells, the “selectivity on antiproliferative ability” value is on record as “around 20%”.

Take “CN7: active fragment of hCRMP-1, 458-572 of SEQ ID NO: 1 (SEQ ID NOS: 25 and 43)”: in the test with DU145 cells, the “selectivity on antiproliferative ability” value is recorded as 28%.

Regarding “full-length hCRMP-1: human collapsin response mediator protein-1, full-length protein with 572 amino acids (SEQ ID NO: 1)”, the Anti-proliferation effect result with CC-M1 cells is “inhibits cancer cell proliferation”; with DU145 cells (DU145, transient transfection, 5-days incubation, normalized to pCI-neo control plasmid), “inhibits cancer cell proliferation”; in the test with H460 cells it was “inhibits cancer cell proliferation”; with H460 cells (listed as full-length CRMP-1), “has antiproliferative activity”; in the test on MCF-7 cells, “inhibits cancer cell proliferation”; in the test with PC-3 cells, “inhibits cancer cell proliferation”. Moreover, the antiproliferative activity entry in test [6] is “no antiproliferative activity”.
